Changes are numbered by the printed parent chain.

One assay has as its system cyno TPO receptor L499H. Briefly: luciferase reporter in HepG2 cells, L499H point mutant of cyno TPO receptor. The format is cell-based, cynomolgous monkey. To be noted: L499H mutation in the cyno TPO receptor. An excerpt: (§1) To further investigate the activity of compounds of Formula (I), cDNA clones for cynomolgous monkey TPO receptor were isolated and sequenced. […] It was clear from these experiments that the compounds of Formula I show strict specificity for the human TPO receptor, a finding also confirmed by STAT activation assays of platelets from human and cyno origin. In order to examine the region of the TPO receptor required for compound activity, a series of human/cyno TPO-R chimeric receptors were transfected into HepG2 cells and tested for their response to compounds of Formula (I). […] To investigate the role of this specific transmembrane domain mutation on the activity of compounds of Formula (I), two point mutations were constructed: a) a H499L change into the human TPO receptor transmembrane domain, creating a receptor with human extracellular and cytoplasmic domains and a cyno receptor transmembrane domain and b) a L499H change into the cyno receptor transmembrane domain creating a chimera with cyno extracellular and cytoplasmic domains and a human transmembrane domain. […] Conversely, the L499H mutation in the cyno TPO receptor allowed it to be activated by both TPO and the compounds with potencies and efficacies similar to those seen on wild type human receptor. […]

A further assay addresses T1, human TPO receptor (Homo sapiens, UniProt P40238).
T1 construct: expressed in transfected cells; host or cells: HepG2
T1 sequence (P40238 26-635): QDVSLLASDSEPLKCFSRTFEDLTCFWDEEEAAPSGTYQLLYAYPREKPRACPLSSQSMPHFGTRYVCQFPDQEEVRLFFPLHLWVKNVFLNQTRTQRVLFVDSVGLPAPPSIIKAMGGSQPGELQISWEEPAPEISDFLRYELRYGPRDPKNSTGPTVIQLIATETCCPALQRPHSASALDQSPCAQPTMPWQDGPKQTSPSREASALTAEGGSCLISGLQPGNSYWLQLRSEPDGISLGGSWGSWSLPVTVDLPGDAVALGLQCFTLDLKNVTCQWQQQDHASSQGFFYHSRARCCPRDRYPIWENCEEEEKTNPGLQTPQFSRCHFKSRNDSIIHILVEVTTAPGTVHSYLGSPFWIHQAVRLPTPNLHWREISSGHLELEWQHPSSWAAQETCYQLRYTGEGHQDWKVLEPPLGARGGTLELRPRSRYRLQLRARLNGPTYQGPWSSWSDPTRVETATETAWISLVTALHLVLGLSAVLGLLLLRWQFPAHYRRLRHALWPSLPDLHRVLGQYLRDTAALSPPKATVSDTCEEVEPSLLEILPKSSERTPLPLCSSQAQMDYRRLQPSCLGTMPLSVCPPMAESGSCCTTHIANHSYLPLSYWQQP
Nature of the assay: luciferase reporter in HepG2 cells cotransfected with human TPO receptor. The format is cell-based. The settings on record: HepG2 cotransfected with human TPO receptor expression vector and reporter. An excerpt: (§2) International Application No. PCT/US99/30371, published as WO 00/35446 on Jun. 22, 2000, discloses that the TPO receptor can be activated by small molecule ligands of Formula (I).
(§3) In determining the efficacy and potency of the presently invented compounds as agonists of dimeric cell-surface receptors, a luciferase reporter gene assay configured in HepG2 cells was utilized (see Tian et al., Science 1998, 281, 257-259).
Human Tpo receptor (hMPL) was cloned from HEL 92.1.7 cells (ATCC, Rockville, Md.) by PCR (forward primer: 5′-ACGAAGCTTAGCCAAGATGTCTCCTTGCTGGCAT-3′ and reverse primer: 5′-AGCCTCGAGTCAAGGCTGCTGCCAATAGCT-3′). The cloned full-length cDNA was confirmed by DNA sequencing analysis, then subcloned into HindIII-XhoI digested pSSF vector. The cynomolgous Tpo-R (cMPL) was cloned from bone marrow cDNA using the human 5′ and 3′ terminal coding sequences. The full-length cDNA was sequenced and subcloned into EcoRI digested pCDNA3. 1 (+) vector (Invitrogen, San Diego, Calif.). […]
HepG2 cells were plated in 24-well plates in triplicates for overnight. […] The cells were then lysed and the level of luciferase expression was measured by a plate reader.

The subject of another assay is HepG2. Nature of the assay: STAT-responsive luciferase reporter in HepG2 cells without transfected receptor. The format is cell-based, human. To be noted: HepG2 transfected with STAT-responsive luciferase reporter only, no TPO receptor. Here is the method: as §2, §3
HepG2 cells were plated in 24-well plates in triplicates for overnight. The cells were then transfected with the indicated receptor construct, a GAS response element containing luciferase reporter, 8×118-TkLUC and STAT5b expression vector (a gift of Dr. James Ihle, Memphis, Tenn.) by Superfect method (QIAGEN, Valencia, Calif.) as instructed by the manufacturer. After an overnight recovery, the transfected cells were treated with 0.1% DMSO, TPO or compound of Example 4 at the indicated concentrations for 4-5 hrs. The cells were then lysed and the level of luciferase expression was measured by a plate reader.
(In general: Reporter assays use an easily measured gene product as a stand-in for the process of interest.)

The target of a further assay is T2, human TPO receptor H499L (Homo sapiens, UniProt P40238, H499L).
T2 construct: expressed in transfected cells; host or cells: HepG2
T2 sequence (P40238 26-635 H499L): T1 sequence (P40238 26-635) with H474L
Briefly: luciferase reporter in HepG2 cells, H499L point mutant of human TPO receptor. The assay is classed as cell-based. To be noted: H499L point mutation in the human TPO receptor.
Description: as §1

For “TPO: thrombopoietin, natural protein ligand of the TPO receptor”, the receptor activation entry with cyno TPO receptor L499H is “activated”. Also, the entries for the “response, luciferase expression” value with human TPO receptor and in the assay on HepG2 were “large increase in luciferase expression” and “do not respond”, respectively. Moreover, the receptor response entry with human TPO receptor H499L is “little effect on the response”.

Source of the values: patent US20040053299A1, “Regulated activation of cell-membrane receptors by metal-chelating agonists” (priority 2003, published 2004).
